This is an account of results in publication PMC12153776, “Synthesis and Preliminary Cytotoxicity Evaluation of 3-Lup-20(29)-Ene-3β,28-Diol Glycoconjugates Containing a Succinic Linker and a 1,2,3-Triazole Ring” (Cancers, 2025).

For one series, the system named is healthy cells. The arrangement: method as in PMID 33353244. The note with it: previous study; cited from earlier work.
In a further series the test system is MCF-7 cell line. The arrangement: method as in PMID 33353244. The note with it: previous study; cited from earlier work.
Series [1] has as its system HCT 116 (colorectal carcinoma cell line). The series is described as follows: cells. It counts as cell-based, human. The conditions noted are these: for IC50: Homo sapiens, MTT. On the procedure:
(§1) For biological studies three different cell lines were used: the NHDF-Neo cell line (Lonza, Poland), the HCT-116 cell line (American Type Culture Collection, ATCC, Manassas, VA, USA), and the MCF-7 cell line (purchased by the Maria Sklodowska-Curie Memorial Cancer Center and Institute of Oncology, Gliwice, Poland and gifted for our research). Cells were cultured in 96-well plates (Sarstedt, Nümbrecht, Germany) using RPMI 1640 or DMEM/F12 media (100 µL per well) supplemented with fetal bovine serum (FBS, EURx, Gdańsk, Poland), and with Antibiotic–Antimycotic Solution (Avantor, Gliwice, Poland). […] Stock solutions of the tested compounds were prepared in DMSO and stored under appropriate conditions. Immediately prior to the experiment, these solutions were diluted to the desired concentrations using a growth medium. In no dilution was the DMSO content higher than 1% v/v. The resulting solutions were then used to treat cells (100 µL per well). […] In parallel, the influence of copper ions on cellular proliferation was investigated. In this case, the procedure was analogous to the previously described one, with the difference that glycoconjugates were added in the culture medium with the addition of CuCl2. […] ACROS Organics) was applied following the manufacturer’s protocol. Absorbance of the formazan, formed during the test and dissolved in 100 µL of DMSO, was measured spectrophotometrically at 570 nm using a plate reader (Epoch, Bio-Tek, Winooski, VT, USA). The measured absorbance was analyzed to assess proliferation, where tested samples were compared with the untreated controls (100%). The results from MTT were presented as the mean of three experiments (biological replicates). For each experimental condition within a replicate, four technical repetitions were performed. Technical repetitions were averaged to obtain a single value per replicate. Statistical analyses were conducted using means of the biological replicates. The percentage of viable cells and the standard deviation (SD) were calculated in Excel (Microsoft Office 365, A3 for faculty), using the STDEV.S formula, which determines the standard deviation for a sample set. […] The results are expressed as the average value ± standard deviation (SD). To evaluate statistical significance, two-way analysis of variance (ANOVA) with replication was performed to assess the effects of compound type and concentration on cell proliferation. […] All statistical tests were performed in Excel. […] Two cancer cell lines were chosen for the study: HCT 116 (colorectal carcinoma cell line) and MCF-7 (human breast adenocarcinoma cell line). This selection was not random, as in both types of cancer cell lines overexpression of glucose and galactose transporters is observed. To determine if glycoconjugation enhanced the selectivity of the betulin derivatives, cytotoxicity tests on Normal Human Dermal Fibroblast-Neonatal cells (NHDF-Neo) were also conducted. […] The incubation time for individual cell lines varied from 24 to 72 h, due to differences in the doubling time of these cell lines.

In series [2] the test system is MCF-7 (human breast adenocarcinoma cell line). The series is described as follows: MTT cytotoxicity assay, MCF-7 cells. The class given is cell-based. The note with it: for IC50: Homo sapiens, MCF7, 72 h, MTT, incubation 72 h. The method, then:
as §1, with “Poland). Cells were seeded and incubated for 24 h prior to treatment:” for “Poland).”, “proliferation. When significant main effects were observed (p < 0.05), pairwise comparisons between betulin (BN) and each analogue at corresponding concentrations were conducted using two-tailed unpaired t-tests.” for “proliferation.”, “conducted. The selection of this healthy cell line, so atypical in relation to the cancer cells tested, was based on the desire to compare the selectivity index determined for the currently obtained glycoconjugates with the results obtained for the betulin derivatives we described earlier and draw preliminary conclusions on structure-selectivity relationships.” for “conducted.”
A general note: Tetrazolium assays rely on reduction of a dye to a coloured formazan, in cell work by metabolically active cells.

For series [3], the system named is Normal Human Dermal Fibroblast-Neonatal cells (NHDF-Neo). The series can be described thus: MTT cytotoxicity assay, healthy NHDF-Neo cells. It counts as cell-based. The conditions noted are these: 24 h, incubation 24 h. On the procedure:
as §1

[4] abbreviates: HCT-116, 24 h, incubation 24 h, no copper added.
Setting [5] is: HCT-116, 48 h, incubation 48 h, addition of CuCl2 at 20 µM.
[6] abbreviates: HCT-116, 48 h, incubation 48 h, no copper added.

A word on the IC50: it is the point on the concentration scale where inhibition reaches its midpoint. The low end stands for higher potency, the high end for lower potency.

For `C=C(C)C1CCC2(COC(=O)Cn3cc(CO)nn3)CCC3(C)C(CCC4C5(C)CCC(OC(=O)Cn6cc(CO)nn6)C(C)(C)C5CCC43C)C12` (stereo not drawn) [3,28-O,O’-bis(2-(4-(hydroxymethyl-1H-1,2,3-triazol-1-yl)acetyl)betulin], the “toxicity against healthy cells” value with healthy cells was “showed toxicity against healthy cells”. Moreover, in the series on MCF-7 cell line, the “in vitro activity against the MCF-7 cell line” value is listed as “unexpectedly high in vitro activity”.

For the compound `C=C(C)[C@@H]1CC[C@]2(COC(=O)CCC(=O)OCc3cn(CCCO[C@@H]4O[C@H](COC(C)=O)[C@@H](OC(C)=O)[C@H](OC(C)=O)[C@H]4OC(C)=O)nn3)CC[C@]3(C)C(CCC4[C@@]5(C)CC[C@H](OC(C)=O)C(C)(C)C5CC[C@]43C)C12` (stereo partly drawn) [7b], the IC50 in series [1] (setting [4]) was greater than 200 µM; in series [1] (setting [5]), 112.5 ± 0.57 µM; in series [1] (setting [6]), greater than 200 µM; in series [2] (addition of CuCl2 at 20 µM), 124 ± 1.64 µM; in series [2] (no copper added), 152 ± 2.91 µM; in series [3] (addition of CuCl2 at 20 µM) it was greater than 200 µM. This compound showed an IC50 in series [3] (no copper added) greater than 200 µM. Moreover, in series [1] (addition of CuCl2 at 20 µM), the “SI HCT 116 (ratio of IC50 of NHDF-Neo to IC50 of cancer cells)” value is given as greater than 1.8. The results for the “SI MCF-7 (ratio of IC50 of NHDF-Neo to IC50 of cancer cells)” value in series [2] (addition of CuCl2 at 20 µM) and in series [2] (no copper added) were greater than 1.6 and greater than 1.3, respectively.

As to `C=C(C)[C@@H]1CC[C@]2(COC(=O)CCC(=O)OCc3cn(CCO[C@@H]4O[C@H](COC(C)=O)[C@@H](OC(C)=O)[C@H](OC(C)=O)[C@H]4OC(C)=O)nn3)CC[C@]3(C)C(CCC4[C@@]5(C)CC[C@H](O)C(C)(C)C5CC[C@]43C)C12` (stereo partly drawn) [7c], the IC50 in series [1] (setting [4]) was greater than 200 µM; in series [1] (setting [5]), greater than 200 µM; in series [1] (setting [6]) it was greater than 200 µM; in series [2] (addition of CuCl2 at 20 µM), 118 ± 1.42 µM; in series [2] (no copper added), 135 ± 7.92 µM; in series [3] (addition of CuCl2 at 20 µM), greater than 200 µM. The compound also displayed an IC50 in series [3] (no copper added) greater than 200 µM. Moreover, the results for the “SI MCF-7 (ratio of IC50 of NHDF-Neo to IC50 of cancer cells)” value in series [2] (addition of CuCl2 at 20 µM) and in series [2] (no copper added) were greater than 1.7 and greater than 1.5, respectively.

Turning to `C=C(C)[C@@H]1CC[C@]2(COC(=O)CCC(=O)OCc3cn(CCCO[C@@H]4O[C@H](COC(C)=O)[C@@H](OC(C)=O)[C@H](OC(C)=O)[C@H]4OC(C)=O)nn3)CC[C@]3(C)C(CCC4[C@@]5(C)CC[C@H](O)C(C)(C)C5CC[C@]43C)C12` (stereo partly drawn) [7d], the IC50 in series [1] (setting [4]) is greater than 200 µM; in series [1] (setting [5]), 60.4 ± 6.95 µM; in series [1] (setting [6]), 131 ± 8.76 µM; in series [2] (addition of CuCl2 at 20 µM), 147 ± 2.32 µM; in series [2] (no copper added), 165 ± 8.32 µM; in series [3] (addition of CuCl2 at 20 µM), greater than 200 µM. The IC50 in series [3] (no copper added) was greater than 200 µM. Also, the “SI HCT 116 (ratio of IC50 of NHDF-Neo to IC50 of cancer cells)” value in series [1] (no copper added) is recorded as greater than 1.5. In addition, the results for the “SI MCF-7 (ratio of IC50 of NHDF-Neo to IC50 of cancer cells)” value in series [2] (addition of CuCl2 at 20 µM) and in series [2] (no copper added) were greater than 1.4 and greater than 1.2, respectively.

Consider `C=C(C)[C@@H]1CC[C@]2(COC(=O)CCC(=O)OCc3cn(C[C@H]4O[C@@H](OC(C)=O)[C@H](OC(C)=O)[C@@H](OC(C)=O)[C@H]4OC(C)=O)nn3)CC[C@]3(C)C(CCC4[C@@]5(C)CC[C@H](OC(C)=O)C(C)(C)C5CC[C@]43C)C12` (stereo partly drawn) [8a], for which the IC50 in series [1] (setting [4]) is greater than 200 µM; in series [1] (setting [5]), greater than 200 µM; in series [1] (setting [6]) it was greater than 200 µM; in series [2] (addition of CuCl2 at 20 µM), 88.3 ± 3.31 µM; in series [2] (no copper added) it was 153 ± 1.98 µM; in series [3] (addition of CuCl2 at 20 µM), greater than 200 µM. This compound also showed an IC50 in series [3] (no copper added) greater than 200 µM. Moreover, the “SI MCF-7 (ratio of IC50 of NHDF-Neo to IC50 of cancer cells)” value was greater than 2.3 in series [2] (addition of CuCl2 at 20 µM) and greater than 1.3 in series [2] (no copper added).

For the compound `C=C(C)[C@@H]1CC[C@]2(COC(=O)CCC(=O)OCc3cn(CCO)nn3)CC[C@]3(C)C(CCC4[C@@]5(C)CC[C@H](OC(C)=O)C(C)(C)C5CC[C@]43C)C12` (stereo partly drawn) [9a], the IC50 in series [1] (HCT-116, 24 h, incubation 24 h, addition of CuCl2 at 20 µM) is greater than 200 µM; in series [1] (setting [4]) it was greater than 200 µM; in series [1] (setting [5]) it was greater than 200 µM; in series [1] (setting [6]), greater than 200 µM; in series [2] (addition of CuCl2 at 20 µM) it was 139 ± 6.21 µM; in series [2] (no copper added), 148 ± 8.71 µM. Besides, the IC50 in series [3] (addition of CuCl2 at 20 µM) and in series [3] (no copper added) was greater than 200 µM throughout. Besides, in series [2] (no copper added), the “SI MCF-7 (ratio of IC50 of NHDF-Neo to IC50 of cancer cells)” value is reported as greater than 1.4.

`C=C(C)[C@@H]1CC[C@]2(CO)CC[C@]3(C)[C@H](CC[C@@H]4[C@@]5(C)CC[C@H](O)C(C)(C)[C@@H]5CC[C@]43C)[C@@H]12` [BN, 3-Lup-20(29)-ene-3β,28-diol]: the IC50 turned out to be 34.9 ± 4.26 µM in series [1] (setting [4]); 20.8 ± 2.71 µM in series [1] (setting [5]); 26 ± 5.4 µM in series [1] (setting [6]); 13.9 ± 2.35 µM in series [2] (addition of CuCl2 at 20 µM); 17.9 ± 1.06 µM in series [2] (no copper added); 33.3 ± 5.97 µM in series [3] (addition of CuCl2 at 20 µM). Further, the IC50 in series [3] (no copper added) worked out at 34.9 ± 8.36 µM. The “SI HCT 116 (ratio of IC50 of NHDF-Neo to IC50 of cancer cells)” value came to 1.6 in series [1] (addition of CuCl2 at 20 µM) and 1.3 in series [1] (no copper added). Also, the figures for the “SI MCF-7 (ratio of IC50 of NHDF-Neo to IC50 of cancer cells)” value in series [2] (addition of CuCl2 at 20 µM) and in series [2] (no copper added) were 2.4 and 1.9, respectively.
